We go through 5 molecules from PMC6009868, “Synthesis and bioactivity of several new hetaryl sulfonamides” (Journal of Enzyme Inhibition and Medicinal Chemistry, 2017).

A short description of this test: Metal chelating activity (Fe2+-ferrozine, 562 nm). Conditions: absorbance at 562 nm. The protocol:
Metal chelating capacity of hetaryl sulfonamides 1–12 was determined according to Dinis et al.[60]. […] Simultaneously, to a mixture of FeCl2 (0.1 mL, 0.6 mM), three concentrations (10–30 µg/mL) of hetaryl sulfonamides 1–12 in ethanol (0.4 mL) were added. The activities were initiated by the addition of ferrozine molecules (0.1 mL, 5 mM). Additionally, the reaction was mixed and maintained in a dark room for 10 min.
As to `COc1ccc(O)c(C(C)(C)C)c1` [BHA], the “Fe^2+ chelating (IC50)” value is 46.20 mg/L.

For the molecule `Cc1cc(C(C)(C)C)c(O)c(C(C)(C)C)c1` [BHT], the “Fe^2+ chelating (IC50)” value was found to be 76.96 mg/L.

Take `O=C(O)CN(CCN(CC(=O)O)CC(=O)O)CC(=O)O` [EDTA]: the “Fe^2+ chelating (IC50)” value was determined as 9.36 mg/L.

With `Cc1c(C)c2c(c(C)c1O)CCC(C)(C(=O)O)O2` (centres unmarked) [Trolox], the “Fe^2+ chelating (IC50)” value amounted to 31.13 mg/L.

`Cc1c(C)c2c(c(C)c1O)CC[C@@](C)(CCC[C@H](C)CCC[C@H](C)CCCC(C)C)O2` [α-Tocopherol]: the “Fe^2+ chelating (IC50)” value is 40.76 mg/L.
